Patent publication US20090257999A1, “Method of preventing contrast-induced nephropathy” (Inotek Pharmaceuticals Corporation, priority 2007, published 2009)

How the values were obtained:
diabetic rats [1] = experiment: CIN model, Example 5: INO-1001 alone and with NAC in diabetic rats; type: in vivo, rat; settings: diabetic rats + Iomeprol, NAC 30 mg/kg i.v., INO-1001 10 mg/kg ip, or both, at −30 min
Description: (§1) Male Wistar rats (150-200 g; Harlan Nossanr) were housed in a controlled environment and provided with standard rodent chow and water. Diabetes was induced after 12 h of fasting. The animals received a single 60 mg/kg intravenous (i.v.) injection of streptozotocin (Sigma, St. Louis, Mo.) in 10 mM sodium citrate buffer, pH 4.5 (see figure). Control non-diabetic animals were fasted and received citrate buffer alone. After 24 hours, animals with blood glucose levels greater than 250 mg/dl were considered diabetic. The diabetic state was confirmed by evaluating the blood glucose levels. Ten days following the induction of diabetes rats were anesthetized with 90 mg/kg ketamine i.m. and 10 mg/kg xylazine i.m. and were treated with the contrast agent iomeprol (10 mL/kg injected via the lateral tail vein) or with 0.9% normal saline. The contrast agent used was the low osmolar non-ionic monomer iomeprol (Iomeron, 400 mgI mL-1; Bracco SpA, Milan, Italy) with an osmolality of 726±34 mosmol/kg H2O.
GROUP 1: Diabetic rats only+Placebo (i.v.). GROUP 2: Diabetic rats+Iomeprol+Placebo (i.v.) given at −30 min. GROUP 3: Diabetic rats+Iomeprol+NAC (30 mg/kg, i.v.) given at −30 min. GROUP 4: Diabetic rats+Iomeprol+INO-1001 (10 mg/kg, ip) given at −30 min. GROUP 5: Diabetic rats+Iomeprol+NAC (30 mg/kg, i.v.)+INO-1001 (10 mg/kg, ip) given at −30 min.
(§2) Blood samples were collected via the lateral tail vein into S1/3 tubes containing serum gel at 24 hours. The samples were centrifuged (6000 r.p.m. for 3 min) to separate plasma. All plasma samples were analyzed for biochemical parameters within 24 hours after collection. Plasma and urine concentrations of creatinine were measured as indicators of impaired glomerular function. Creatinine clearance was calculated using the following formula (=UV/P), where U refers to Creatinine concentration in urine, V to urine volume/min and P to serum creatinine. Plasma and urine concentrations of NGAL (neutrophil gelatinase associated lipocalin) levels and urine αGST (alpha glutathione S-transferase) and NGAL levels were evaluated.
Protein concentration in urine was determined by Bio-Rad DC Protein Assay (BioRad, Richmond Calif.). The Bio-Rad DC protein assay is a colorimetric assay for protein concentration. The reaction is similar to the well-documented Lowry assay (Lowry et al., Protein measurement with the Folin phenol reagent, J Biol Chem 193, 265-275 (1951). The Bio-Rad DC protein assay requires only a single 15-minute incubation, and absorbance is stable for a least 2 hours. The amount of protein is expressed in mg/ml.

diabetic rats [2] = experiment: CIN model, Example 3: M40403 alone and with NAC in diabetic rats; type: in vivo, rat; settings: diabetic rats + Iomeprol, 24 hours; M40403 0.5 mg/kg i.v. alone or + NAC 3 mg/kg i.v., at −30 min
Description: as §1, with “12 hours” for “12 h”
as §2, with “gel at 0 and 24 hours.” for “gel at 24 hours.”, “of NGAL levels were” for “of NGAL (neutrophil gelatinase associated lipocalin) levels and urine αGST (alpha glutathione S-transferase) and NGAL levels were”

[3] = Iomeron, 400 mgI mL-1; cited from earlier work

SMILES: O=c1[nH]cnc2c1ncn2[C@@H]1O[C@H](CO)[C@@H](O)[C@H]1O [INO-1001]
- plasma creatinine (diabetic rats [1]; 24 h): significant reductions
- plasma NGAL concentration (diabetic rats [1]; 24 hours): significant reductions
- total protein concentration in the urine (diabetic rats [1]; 24 hours): significant reductions
- urine NGAL concentration (diabetic rats [1]; 24 hours): significant reductions
- urine αGST (diabetic rats [1]; 24 hours): significant reductions

SMILES: [Cl-].[Cl-].[Mn+2].c1cc2nc(c1)CN[C@@H]1CCCC[C@H]1NCCN[C@@H]1CCCC[C@H]1NC2 [Metalloporphyrin M40403]
- plasma NGAL concentration (diabetic rats [2]): significant reduction
- plasma Na+ (diabetic rats [2]): significant reductions
- plasma concentrations of K+ (diabetic rats [2]): significant increase
- plasma creatinine (diabetic rats [2]): significant reductions
- total protein concentrations in the urine (diabetic rats [2]): significantly reduced
- urine NGAL concentration (diabetic rats [2]): significant reduction

SMILES: CN(C(=O)CO)c1c(I)c(C(=O)NCC(O)CO)c(I)c(C(=O)NCC(O)CO)c1I (stereo not drawn) [iomeprol]
- osmolality [3]: 726±34 mosmol/kg H2O
